Experimental data from patent publication US20070105787A1, “Use of ribose in recovery from anaesthesia” (priority 2004, published 2007).

Assays:
[1] = tested on: myocardial dysfunction resulting from globally induced ischemia during cardiac surgical procedures; assay type: in vivo, human
Source text: Inclusion criteria were: • Males or females aged 18 or older • Patients with documented coronary artery disease undergoing CABG with an ejection fraction (EF) of ≦35% based on echocardiography, radionuclide imaging or cardiac catheterization done within eight weeks of surgery. (If more than one method was used to evaluate EF during this period, the mean values of the various methods were ≦35%). • Patients undergoing single or double valve replacement with documented coronary artery disease also undergoing CABG; or patients undergoing single or double valve replacement without CABG • Serum creatinine of ≦2.35 mg/dl • For females of childbearing potential, a negative pregnancy test. • Signed consent forms. The test article, placebo or ribose, was dispensed according to computer-generated randomization schedule either for patients undergoing CABG only or for patients undergoing heart valve surgery +/-CABG. All patients received a high dose narcotic anaesthesia technique consisting of either fentanyl (50-100 μg/kg) or sufentanil (10-20 μg/kg) and midazolam. No restriction was placed on the type of anaesthetic agents administered. The anaesthesiologists and surgeons responsible for the care of the patents made the clinical decision to use inotropic support, intra-aortic balloon pump support or post bypass circulatory support based on their knowledge of patients requirements and accepted medical practice and without regard to test article status. The test article infusion was started intravenously at the time of aortic cross clamping and continued until the pulmonary artery catheters introducer was removed or for five days (120) hours whichever occurred first. The surgeons responsible for the clinical care of the patients removed the pulmonary artery catheter cordis without regard to test article stats. Hemodynamic measurements consisting of heart rate, blood pressure, pulmonary artery pressures, pulmonary capillary wedge pressure (PCWP), central venous pressure (CVP) and thermodilution cardiac index (CI) were obtained at the following time intervals: immediately prior to induction of anaesthesia, post induction of anaesthesia prior to sternotomy, post sternotomy prior to initiation of cardiopulmonary bypass, upon successful termination of cardiopulmonary bypass prior to sternal closure and prior to reversal of heparinization with protamine, post closure of the sternum, upon arrival in the intensive care unit and at one or two hour intervals until the pulmonary artery a catheter was removed. Transesophageal echocardiography data (H.P. Sonos OR, 5.0 MHz, Andover, Mass.) was collected at the following time intervals: post induction of anaesthesia prior to sternotomy, and immediately post closure of the sternum. Transthoracic echocardiography (H.P. Sonos 1500. 2.5 MHz, Andover, Mass.) measurements were made on day three and day seven of the study period. For both the transesophageal and transthoracic echocardiograms, the following long axis and short axis mid-papillary area changes were measured in triplicate by acoustic quantification techniques: end diastolic area (EDA), end systolic area (ESA), fractional area change (FAC), +dA/dt and -dA/dt. All area change data were also analyzed by manual off line analysis. EF was also determined off line using a long axis view. In addition, regional wall motion was quantified as the following: normal=1, hypokinetic=2, akinetic=3 and dyskinetic=4. The wall motion index score (WMIS) and percentage normal myocardium were calculated by reading a maximum of sixteen segments. Echocardiography data for evaluating wall motion and area change was analyzed only if greater than 75% of the endocardial border could be visualized through a complete cardiac cycle. […]

[2] = tested on: patients selected for OCBP revascularization; assay: presurgical oral ribose loading, off cardiopulmonary bypass (OCBP) revascularization trial; assay type: in vivo, human; conditions: oral D-ribose preoperatively (24 patients) vs no ribose (20), baseline to post-operative, p<0.028
Source text: Patients with stable coronary artery disease or patients presenting with acute myocardial infarction may undergo revascularization using an “off” cardiopulmonary bypass procedure (“OCBP”). This procedure avoids the deleterious effects of cross-clamping in patients who can be selected for the procedure. The selection criteria include: accessibility of the grafts; number of the grafts; condition of the patient. When the area to be revascularized is at the back of the heart, the heart will need to be handled and rotated, which would interfere with the beating of the heart. If several grafts are needed, the time of operation is prolonged and the patient's heart will need to support circulation for a long time. Finally, a poorly functioning heart will need the assistance of the pump to support circulation. Nevertheless, in properly selected patients, the benefits of avoiding cross-clamping are substantial.
Forty-four adult patients were enrolled in a trial. At least one-third of the patents had sustained an acute myocardial infarction prior to presentation and pre-operative ejection fractions ranged from 30-72%. All patients were selected for OCBP revascularization with 20 patients comsuming no pre-operative ribose and 24 patients given oral D-ribose preoperatively, cardiac indices were measured at baseline and post-operatively. […]

[3] = tested on: recovery from general anaesthesia; assay: anecdotal reports, non-cardiac surgery with general anaesthesia; assay type: in vivo, human; conditions: person, vs first operation
Source text: A. Anecdotal Results from Non-Cardiac Surgery with General Anaesthesia. […] For example, a person underwent two hip replacement operations, five months apart. With the second operation, they began taking oral ribose immediately after their recovery from anaesthesia. Their recovery to a feeling of alertness and energy was more rapid than after the first operation. Furthermore, their level of pain was less. Likewise, a person also underwent two knee replacement operations. With the second operation, they self-administered D-Ribose pre- and postoperatively. Their recovery to a feeling of alertness and energy was more rapid than after the first operation. Bauer et al. (Z. Geb. Neonatal 2001 May-June, 205(3):80-85) studied the efficacy of oral glucose for treating procedural pain in neonates. […] The authors proposed that the orogustatory stimulation by the sweet taste caused an endorphin release. It is not known whether the result seen was due to the local effect or to a systemic effect of glucose.

[4] = tested on: patients undergoing AVR with aortic cross clamping; assay: planned trial of preoperative oral plus intravenous D-Ribose before cross clamping (Example 3); assay type: in vivo, human; conditions: oral D-Ribose preloading plus IV 100 mg/kg/hour with D-Glucose, vs placebo
Source text: A single-center, randomized, double-blinded placebo-controlled clinical trial was designed to determine if preoperative oral administration of D-Ribose, following by peri-operative and operative intravenous infusion of D-Ribose could improve the ejection fraction and other functional parameters of hearts that are cross-clamped for various cardiac surgical procedures. Thirty (30) patients meeting the inclusion and exclusion criteria and who have signed informed consent forms will be randomized to receive oral D-Ribose (15) or D-Glucose (placebo) (15) for seven or 14 days prior to their surgical procedure and intravenous 5% […] (5% D-Glucose in normal saline, 0.5 mL/kg/hour) or 10% pyrogen-free D-Ribose in 5% D5W at a dose of 100 mg/kg/hour for five (5) days through a pulmonary artery cordis) beginning at the time of aortic cross clamping. […] Patients will be evaluated baseline×2, (once prior to beginning oral test supplement and again within three days prior to surgical procedure), during and after surgery, and at days 1, 5 and 7. […] Patients will be evaluated for eligibility within three days to first test article administration and evaluation will be updated within three days prior to surgery. […] A medication history will be taken and all medications recorded in the case report. […]

[5] = tested on: Wistar rats, recovery from general anaesthesia; assay: planned rat sham abdominal surgery study under halothane anaesthesia; assay type: in vivo; conditions: D-Ribose before, during and after sham operation, vs D-Glucose placebo
Description: Littered-paired Wistar rats will be preconditioned with oral D-Ribose (250 mg/day, 10 animals) as a test drug or D-Glucose (250 mg/day, 10 animals) as a placebo for five days. Following the preconditioning, the rats will be anesthetized with halothane, intubated for artificial respiration and paralyzed with curare. Following general anaesthesia, the rats will be given either the test drug or placebo, intravenously (IV). A two-inch abdominal incision will be made and the viscera will be carefully manipulated to simulate an abdominal exploratory surgery. The incision will be closed and the animals will be held under anaesthesia for one additional hour. Following that hour, anaesthesia will be discontinued and the IV infusion will be halted. The animals will be placed individually in activity cages and their activity will be assessed daily for five days. Test drug or placebo will be added to the drinking water at a dosage of 5% wt/vol. The blinded results will be observed for: first movement (return to consciousness following the sham operation) and daily activity over the first day and next five days. Food and water intake and gastrointestinal function will be measured.

[6] = tested on: sheep undergoing aortic valve replacement under general anaesthesia
[7] = tested on: healthy dog hearts after 20 minute normothermic global myocardial ischemia; conditions: D-Ribose from reperfusion for at least four days; cited from earlier work
[8] = tested on: procedural pain in neonates; conditions: glucose solution on the tongue; cited from earlier work
[9] = second hip replacement, oral ribose after anaesthesia

Compound	patients who developed hypoglycemia (fingerstick glucose<70 mg/dl) ([1]; both, human, in vivo) [%]	lowest glucose level ([1]; human, in vivo) [mg/dL]	mean glucose level in those patients developing hypoglycemia ([1]; human, in vivo) [mg/dL]	neurological or other clinical symptoms associated with hypoglycemia ([1]; human, in vivo)	mean Day 7 EF ([1]; ribose treated patients, Day 7, echocardiography, IV 100 mg/kg/hr, p=0.49 vs baseline) [%]	mean baseline EF ([1]; ribose treated patients, baseline, echocardiography, IV 100 mg/kg/hr) [%]	change of EF from baseline to Day 7 ([1]; ribose treated patients, placebo EF declined, treatment effect p=0.04)	greater increase in cardiac indices compared to controls [2] [%]	level of pain [3, 9]	recovery to a feeling of alertness and energy [3, 9]	recovery to a feeling of alertness and energy ([3]; second knee replacement, D-Ribose pre- and postoperatively)	expected myocardial function and recovery [4]	expected movement after anaesthesia and activity during the following five days [5]	tolerability (metabolic or chemical abnormalities) ([6]; in vivo, iv)	time quiet and inactive after extubation ([6]; sheep given ribose)	time to eating solid food ([6]; sheep given ribose, some animals, after the quiet period)	time to assume a consciousness state upon weaning from the ventilator ([6]; sheep, vs animals not given ribose)	time to cardiac arrest with cardioplegia ([6]; sheep, vs animals not given ribose, difference not statistically significant)	ATP recovery [7]	degree of pain experienced during venous blood sampling [8]
O=C[C@H](O)[C@H](O)[C@H](O)CO [D-Ribose]	28	31	58	None of these patients developed neurological or other clinical symptoms	41	44	unchanged	49	less	more rapid	more rapid	better myocardial function	earlier movement after anaesthesia and increased activity	no metabolic or chemical abnormalities	about one	within the next hour	faster	somewhat faster	enhanced ATP recovery	
O=C[C@H](O)[C@@H](O)[C@H](O)[C@H](O)CO [glucose, D-Glucose]																				reduced the degree of pain
